Source: patent US20250326748A1, “COMPOUNDS AND METHODS FOR MODULATING SPLICING” (REMIX THERAPEUTICS INC., priority 2022, published 2025)
Where a name gives a salt, the structure may show the parent alone.

Assays:
SMN2 mRNA = test: Splicing RT-qPCR panel, SMN2 canonical junction (CJ) mRNA; assay type: cell-based, human; conditions: Homo sapiens, read-out: SMN2 CJ (decrease in CJ mRNA levels, IC50)
Procedure, shortened: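 A673 cells (DMEM, 10% FBS) or K562 cells (IMDM, 10% FBS) treated 24 h at 37 °C with an 11-point 3-fold dilution, top 10 uM, DMSO ≤0.25%. Canonical-junction mRNA quantified in lysates by RT-qPCR, normalised to GAPDH, GUSB or PPIA and to DMSO (2^−ΔΔCt), then converted to % response.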

HiBiT-tagged MYB protein = test: HiBiT protein abundance assay, MYB (K562 HiBiT knock-in); assay type: cell-based, human; conditions: HiBiT knock-in cells, 24 hours
Procedure, shortened: (§1)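 Endogenously HiBiT-tagged K562 knock-in lines treated 24 h at 37 °C with 10-point 3-fold dilutions (top 10 μM final, DMSO ≤0.25%) in IMDM+1% FBS. Lytic Nano-Glo luminescence normalized to DMSO and unmodified K562 controls; four-parameter fit gives 50%-abundance concentration (IC50).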

HiBiT-tagged HTT protein = test: HiBiT protein abundance assay, HTT (K562 HiBiT knock-in); assay type: cell-based, human; conditions: HiBiT knock-in cells, 24 hours
Procedure, shortened: as §1

K562 cells = test: Cell viability, Cell Titer Glo 2.0 assay, K562; conditions: 72 hours

| SMILES | IC50 (SMN2 mRNA) [nM] | IC50 (HiBiT-tagged MYB protein) [nM] | IC50 (HiBiT-tagged HTT protein) [nM] | Effect on Cell Viability, K562 (K562 cells) |
| --- | --- | --- | --- | --- |
| Cc1c(O)c(-c2ccc3cc(N4CC[C@@H](NCC5CC5)C4)cnc3n2)cc2cn(C)nc12 [Compound 118] | < 100 | < 100 | < 100 | A (<100 nM) |
| CN1CCC[C@@H]2CN(c3cnc4nc(-c5cc6cn(C)nc6c(F)c5O)cc(Cl)c4c3)C[C@@H]21 [Compound 303] | < 100 | 100 to 1000 | 100 to 1000 | B (100-1000 nM) |
| C[C@@H]1CN(c2cnc3nc(-c4ccc5nn(C)cc5c4)cc(Cl)c3c2)C[C@H](C)N1 [Compound 320, 4-chloro-6-[(3R,5S)-3,5-dimethylpiperazin-1-yl]-2-(2-methylindazol-5-yl)-1,8-naphthyridine] | < 100 | 1000 to 10000 | 1000 to 10000 | C (1000-9999 nM) |
| Cn1cc2cc(-c3ccc4cc(NC5CCNCC5)cnc4n3)c(O)c(F)c2n1 [Compound 285] | < 100 | 100 to 1000 | 100 to 1000 | B (100-1000 nM) |
| CN[C@@H]1CN(c2cnc3nc(-c4cc5cn(C)nc5c(C)c4O)ccc3c2)C[C@@H]1C [Compound 128] | < 100 | < 100 | 100 to 1000 | A (<100 nM) |
| Cn1cc2cc(-c3ccc4cc(N5CC[C@H](NCC6CC6)C5)cnc4n3)c(O)c(F)c2n1 [Compound 136, 5-{6-[(3S)-3-[(cyclopropylmethyl)amino]326pyrrolidine-1-yl]-1,8-naphthyridin-2-yl}-7-fluoro-2-methylindazol-6-ol] | < 100 | < 100 | 100 to 1000 | A (<100 nM) |
| CN[C@@H]1CN(c2cnc3nc(-c4cc5cn(C)nc5c(C)c4O)ccc3c2)C[C@@H]1F [Compound 132, 5-{6-[(3S,4R)-3-fluoro-4-(methylamino)pyrrolidin-1-yl]-1,8-naphthyridin-2-yl}-2,7-dimethylindazol-6-ol] | < 100 | < 100 | 100 to 1000 | B (100-1000 nM) |
| CN[C@H]1CCN(c2cnc3nc(-c4cc5cn(C)nc5c(F)c4O)cc(Cl)c3c2)C1 [Compound 272] | < 100 | < 100 | < 100 | A (<100 nM) |
| Cn1cc2cc(-c3ccc4cc(N5CCC(NC(C)(C)C)C5)cnc4n3)c(O)cc2n1 (stereo not drawn) [Compound 134, 5-{6-[3-(tert-butylamino)pyrrolidin-1-yl]-1,8-naphthyridin-2-yl}-2-methylindazol-6-ol hydrochloride] | < 100 | 100 to 1000 | 100 to 1000 | B (100-1000 nM) |
| CN[C@@H]1CCN(c2cnc3nc(-c4cc(C)c5nc(C)cn5n4)ccc3c2)C1 [Compound 117] | < 100 | < 100 | 100 to 1000 | B (100-1000 nM) |
| C[C@@H]1CN(c2cnc3nc(-c4cc(F)c5nn(C)cc5c4)cc(Cl)c3c2)CCN1 [Compound 295, 4-chloro-2-(7-fluoro-2-methylindazol-5-yl)-6-[(3R)-3-methylpiperazin-1-yl]-1,8-naphthyridine] | < 100 | 100 to 1000 | 100 to 1000 | B (100-1000 nM) |
| CN[C@@H]1CCN(c2cnc3nc(-c4cc5cn(C)nc5c(C)c4O)cc(Cl)c3c2)C1 [Compound 286, 5-{4-chloro-6-[(3R)-3-(methylamino)pyrrolidin-1-yl]-1,8-naphthyridin-2-yl}-2,7-dimethylindazol-6-ol hydrochloride] | < 100 | < 100 | < 100 | A (<100 nM) |
| CNC1CCN(c2cnc3nc(-c4cc5cn(C)nc5c(C)c4O)ncc3c2)C1 (stereo not drawn) [Compound 104, 2,7-dimethyl-5-{6-[3-(methylamino)pyrrolidin-1-yl]pyrido[2,3-d]pyrimidin-2-yl}indazol-6-ol] | < 100 | < 100 | 100 to 1000 | A (<100 nM) |
| CN[C@@H]1CN(c2cnc3nc(-c4cc5cn(C)nc5c(C)c4O)ccc3c2)C[C@H]1F (single isomer, unassigned) [Compound 130] | < 100 | 100 to 1000 | 100 to 1000 | B (100-1000 nM) |
| CN[C@@H]1CCN(c2cnc3nc(-c4cc(C)c5nc(C)cn5n4)cc(Cl)c3c2)C1 [Compound 341] | < 100 | < 100 | < 100 | A (<100 nM) |
